Data as given in ChEMBL document CHEMBL4706713, “Speeding drug discovery targeting RNAs: An iterative "RNA selection-compounds screening cycle" for exploring RNA-small molecule pairs” (Bioorg Med Chem, 2021).
Values belong to the molecule of their own block, whether it stands above or below them. Calls of active or inactive are those of the source. The calls are words filed in the database; no cut-off is given here.

Columns and labels:
[1] = Binding affinity to 5'-Biotinylated pre-let-7f-2-loop-mt RNA (unknown origin) at 25 uM by SPR analysis
[2] = Binding affinity to 5'-Biotinylated pre-let-7f-2-loop-mt RNA (unknown origin) by SPR analysis
[3] = Binding affinity to R1-RNA internal loop mutant1 (unknown origin) by SPR analysis
[4] = Binding affinity to R1-RNA internal loop (unknown origin) by SPR analysis
[5] = Binding affinity to R1-RNA internal loop mutant3 (unknown origin) by SPR analysis
[6] = Binding affinity to 5'-Biotinylated pre-let-7f-2 RNA (unknown origin) by SPR analysis
[7] = Binding affinity to R1-RNA hairpin loop (unknown origin) by SPR analysis
[8] = Binding affinity to R2-RNA (unknown origin) by SPR analysis
[9] = Binding affinity to R1-RNA internal loop mutant4 (unknown origin) by SPR analysis
[10] = Binding affinity to R1-RNA (unknown origin) by SPR analysis
[11] = Binding affinity to R1-RNA internal loop mutant2 (unknown origin) by SPR analysis

Activity [1]: Active | Kd [2]: 17.8 µM
Compound: CC(C)NC(=O)c1ccncc1NC(=O)Nc1nn(C)c2nc(Cl)ncc12

Activity [2]: inactive
Compound: COCC1CCN(c2ncc3c(NC(=O)Nc4cnccc4C(=O)NC(C)C)nn(C)c3n2)C1 (configuration not stated)

Activity [3]: inactive | Activity [1]: Active | Activity [4]: Active | Activity [5]: inactive | Activity [6]: inactive | Activity [7]: inactive | Activity [8]: inactive | Activity [9]: inactive | Activity [10]: Active | Activity [2]: Active | Activity [11]: inactive
Compound: Cn1nc(NC(=O)Nc2cnccc2C(=O)N[C@@H](CO)CCCCN)c2cnc(N3CC(F)(F)C(F)(F)C3)nc21

Activity [2]: inactive
Compound: CC(C)NC(=O)c1ccncc1NC(=O)Nc1nn(C)c2nc(N3CCCC3)ncc12

Activity [1]: Active
Compound: CC(C)NC(=O)c1ccncc1NC(=O)Nc1nn(C)c2nc(N3CCC(N(C)C)C3)ncc12 (configuration not stated)

Activity [1]: Active
Compound: CC(C)NC(=O)c1ccncc1NC(=O)Nc1nn(C)c2nc(N3CCC(CN(C)C)C3)ncc12 (configuration not stated)
